We go through twelve compounds from patent US20060229358A1, “Pharmaceutical composition containing flavonoids” (Taipei Medical University, priority 2005, published 2006).

The structures appear in SMILES notation.

This assay relates to PDE1. Nature of the assay: Inhibition of cyclic nucleotide PDE activity (Assay I), PDE1. It is filed as biochemical, guinea pig. The following applies: mean ± S.E.M. (n); read-out: IC50 on phosphodiesterase isozyme 1. As for the experimental part:
Under a protocol approved by the Animal Care and Use Committee of Taipei Medical University, five male guinea pigs (Hartley), weighing 500-600 g, were sacrificed. The lungs (15 g) or hearts (4 g) taken therefrom were chopped into small pieces and homogenized with a glass/teflon homogenizer (Glas-Col, Terre Haute, Ind., USA) in 10 volumes of cold medium (pH 6.5) containing 20 mM Bis-Tris, 2 mM benzamidine, 2 mM EDTA, 50 mM sodium chloride, 0.1 mM phenylmethanesulfonyl fluoride (PMSF), and 1 mM dithiothreitol. At 4° C., the homogenate was centrifuged at 170 g for 15 min, and the supernatant thereof was then re-centrifuged at 40,000 g for 30 min. The final supernatant fraction was filtered through the 0.22 μm filter and applied to a Q-sepharose fast flow column (2.2×28 cm), which is pre-washed and pre-equilibrated in homogenization buffer. The column was washed with two bed volumes of homogenate buffer to remove unbound material, where the resin beads therein will bind with proteins, such as PDE proteins. Proteins bound to the Q-sepharose beads were eluted with various concentrations (0.23, 0.34, 0.44, 0.69, and 1.00 M) of NaCl dissolved in homogenate buffer (for each concentration, 40-50 mL elution buffer were applied) at a flow rate of 30 ml/h. Fractions (3 ml each) were collected, and ethylene glycol (EG) was added thereto until a final concentration of 30% (v/v). And then the samples were frozen at −70° C. Under these conditions, the enzyme activity was stable for at least 3 months.
In order to eliminate possible contamination of PDE5 by PDE1, the above-collected fractions with enzyme activity was further purified on a calmodulin-agarose column. The column (1.6 cm×4 cm) was pre-equilibrated by a buffer A, which contains 20 mM Bis-tris, 1 mM dithiothreitol, 2 mM benzamidine, 50 mM NaCl, 3 mMMgCl2, 0.1 mM CaCl2, and 0.1 mM PMSF, pH 6.5. The sample (the mixture of PDE5 and PDE1), being purified by the above-mentioned column, with the CaCl2 concentration thereof adjusted to at least 2 mM previously, was loaded and allowed to be absorbed on the gel for 30 min. Then, the PDE isozymes were eluted by stepwise elution using 20 ml of buffer A with 1 M NaCl followed by 20 ml of buffer A with 1 M NaCl and with 1 mM EGTA. PDE5 was collected first followed by PDE1.
The activities of PDE1-5 in the homogenate were measured with a two-step procedure according to the method of Thompson and Appleman, using cAMP with [^3H]-cAMP or cGMP with [^3 H]-cGMP as substrates. The PDE enzyme prepared (25 μl) with 10 μl inhibitor or the solvents therefor was incubated for 30 min at 37° C. in a total assay buffer, where the final volume of the assay is amounted to 100 μl. In accordance with the features of the PDE isozymes, the assay buffer contains 50 mM Tris/HCl (pH 7.4), 3 mM MgCl2, 1 mM dithiothreitol, and 0.05% BSA, and optionally contains 1 uM cAMP with 0.2 μCi [^3H]-cAMP as a substrate alone or in the presence of 0.1 unit calmodulin with 10 μM CaCl2, or 5 μM cGMP, and 1 μM cGMP with 0.2 μCi [^3H]-cGMP as another substrate alone or in the presence of 0.1 unit calmodulin with 10 μM CaCl2. In assay of enzyme inhibition, the assay mixture contained with the inhibitors at various concentrations of flavonoids in the Table 1 or the selective PDE1-5 inhibitors as reference drugs. For example, the selective PDE1-5 inhibitors are vinpocetin [30], EHNA [31], milrinone, Ro 20-1724 [33], and zaprinast, respectively.
The PDE enzyme and the inhibitors (or their solvent) therefor were mixed and incubated on ice for 30 min previously, and then mixed with the assay buffer. The assay was initiated by transferring the mixture to a water bath at 37° C. Following the other 30 min incubation, the reaction was stopped by transferring the reaction vessel to a bath of boiling water for 3 min. After cooling on ice, 20 μl of the 1 mg/ml of Crotalus atrox venom was added to the reaction mixture, and the mixture was incubated at 37° C. for 10 min. […]
`O=c1cc(-c2ccc(O)cc2)oc2cc(O)cc(O)c12` [Apigenin]: the IC50 is 25.4 ± 3.7 µM.

Take `COc1ccc(-c2coc3cc(O)cc(O)c3c2=O)cc1` [Biochanin A]: the IC50 turned out to be 29.1 ± 0.3 µM.

Turning to `O=c1cc(-c2ccccc2)oc2cc(O)cc(O)c12` [Chrysin], the half-maximal inhibitory concentration (IC50) is greater than 100 µM.

For the compound `O=c1c(-c2ccc(O)cc2)coc2cc(O)ccc12` [Daidzein], the half-maximal inhibitory concentration (IC50) is greater than 100 µM.

Regarding `O=C1CC(c2ccc(O)c(O)c2)Oc2cc(O)cc(O)c21` (stereo not drawn) [Eriodictyol], the IC50 is greater than 100 µM.

As to `O=c1c(-c2ccc(O)cc2)coc2cc(O)cc(O)c12` [Genistein], the half-maximal inhibitory concentration (IC50) is 16.8 ± 2.3 µM.

In the case of `COc1ccc(C2CC(=O)c3c(O)cc(O)cc3O2)cc1O` (stereo not drawn) [Hesperetin], the IC50 is greater than 100 µM.

As to `O=c1cc(-c2ccc(O)c(O)c2)oc2cc(O[C@@H]3O[C@H](CO)[C@@H](O)[C@H](O)[C@H]3O)cc(O)c12` [Luteolin-7-glucoside], the IC50 was greater than 100 µM.

`O=c1cc(-c2ccc(O)c(O)c2)oc2cc(O)cc(O)c12` [Luteolin]: the IC50 amounted to 21.5 ± 2.9 µM.

`O=c1c(O)c(-c2cc(O)c(O)c(O)c2)oc2cc(O)cc(O)c12` [Myricetin]: the IC50 was 24.9 ± 3.6 µM.

Consider `COc1cc(O)c2c(=O)c(-c3ccc(O)cc3)coc2c1` [Prunetin], for which the IC50 was greater than 100 µM.

`O=c1c(O)c(-c2ccc(O)c(O)c2)oc2cc(O)cc(O)c12` [Quercetin]: the IC50 is 27.8 ± 5.7 µM.

What is called IC50 is the midpoint of a concentration-inhibition curve.
